In patent US11090319B2, “Therapeutic uses of pharmaceutical compositions comprising cyclic boronic acid ester derivatives” (Melinta Subsidiary Corp., priority 2010, dated 2021):
Where two headings read alike, the source gives them in different places.

Assays:
Assay in all cases: biochemical
Format in all cases: biochemical
[1] = molecular target: various β-lactamases (bacterial lysates) (Escherichia coli, UniProt A0A5R8T042); details: read-out: AZT IC50 KP1009 CTX-M-15
[2] = molecular target: various β-lactamases (bacterial lysates) (Escherichia coli, UniProt A0A649V088); details: read-out: AZT IC50 KP1005 CTX-M-14
various β-lactamases (bacterial lysates) (Escherichia coli, UniProt A0A649V088), sequence (A0A649V088 29-291): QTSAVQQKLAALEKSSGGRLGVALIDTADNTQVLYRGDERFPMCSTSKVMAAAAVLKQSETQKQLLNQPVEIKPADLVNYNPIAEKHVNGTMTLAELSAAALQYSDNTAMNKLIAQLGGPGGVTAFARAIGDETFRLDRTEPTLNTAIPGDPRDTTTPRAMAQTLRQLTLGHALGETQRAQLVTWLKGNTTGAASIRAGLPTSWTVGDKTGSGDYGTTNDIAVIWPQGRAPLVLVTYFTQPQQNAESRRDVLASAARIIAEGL

[3] = molecular target: various β-lactamases (bacterial lysates) (Klebsiella pneumoniae, UniProt Q9F663); details: aztreonam cleavage
various β-lactamases (bacterial lysates) (Klebsiella pneumoniae, UniProt Q9F663), sequence (Q9F663 whole entry, looked up): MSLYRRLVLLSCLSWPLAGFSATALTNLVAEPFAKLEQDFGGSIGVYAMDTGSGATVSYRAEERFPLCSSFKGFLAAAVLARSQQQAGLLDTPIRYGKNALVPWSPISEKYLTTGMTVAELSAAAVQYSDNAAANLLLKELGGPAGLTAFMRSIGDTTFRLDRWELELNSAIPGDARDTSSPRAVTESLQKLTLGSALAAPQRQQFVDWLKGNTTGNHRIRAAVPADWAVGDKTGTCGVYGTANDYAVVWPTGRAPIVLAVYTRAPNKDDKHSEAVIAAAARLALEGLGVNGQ

[4] = molecular target: various β-lactamases (bacterial lysates) (Klebsiella pneumoniae, UniProt Q9F663, H272Y)
various β-lactamases (bacterial lysates) (Klebsiella pneumoniae, UniProt Q9F663, H272Y), sequence (Q9F663 whole entry H272Y, looked up): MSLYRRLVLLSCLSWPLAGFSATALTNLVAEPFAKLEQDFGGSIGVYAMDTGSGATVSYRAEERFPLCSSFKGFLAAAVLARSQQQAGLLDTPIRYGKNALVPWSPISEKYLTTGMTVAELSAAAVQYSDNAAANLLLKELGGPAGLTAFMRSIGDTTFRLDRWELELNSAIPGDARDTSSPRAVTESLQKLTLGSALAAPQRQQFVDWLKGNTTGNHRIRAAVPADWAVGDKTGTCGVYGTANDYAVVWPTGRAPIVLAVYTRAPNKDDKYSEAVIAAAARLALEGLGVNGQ

[5] = molecular target: various β-lactamases (bacterial lysates) (Pseudomonas aeruginosa, UniProt P14489); details: AZT IC50 KP1007 OXA-10
various β-lactamases (bacterial lysates) (Pseudomonas aeruginosa, UniProt P14489), sequence (P14489 20-266): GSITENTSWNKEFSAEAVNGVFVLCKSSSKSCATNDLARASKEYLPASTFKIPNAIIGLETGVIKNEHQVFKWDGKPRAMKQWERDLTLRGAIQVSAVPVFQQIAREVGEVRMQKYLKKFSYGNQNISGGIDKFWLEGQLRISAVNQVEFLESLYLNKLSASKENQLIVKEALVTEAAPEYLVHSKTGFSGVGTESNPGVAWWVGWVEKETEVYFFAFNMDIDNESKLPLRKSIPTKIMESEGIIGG

[6] = molecular target: various β-lactamases (bacterial lysates) (Salmonella typhimurium, UniProt P0A1V8); details: AZT IC50 KPX1001 OXA-2
various β-lactamases (bacterial lysates) (Salmonella typhimurium, UniProt P0A1V8), sequence (P0A1V8 22-275): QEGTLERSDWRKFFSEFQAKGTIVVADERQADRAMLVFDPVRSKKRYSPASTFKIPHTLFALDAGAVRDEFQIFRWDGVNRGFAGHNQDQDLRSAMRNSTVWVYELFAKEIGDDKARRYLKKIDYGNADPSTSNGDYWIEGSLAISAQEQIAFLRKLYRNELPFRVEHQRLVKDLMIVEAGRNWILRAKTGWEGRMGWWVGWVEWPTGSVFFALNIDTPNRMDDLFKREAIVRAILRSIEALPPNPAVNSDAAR

[7] = lysate KP1004 KPC-2, read-out: AZT IC50 KP1004 KPC-2 (converted)
[8] = lysate KP1008 KPC-2, read-out: AZT IC50 KP1008 KPC-2

various β-lactamases (bacterial lysates) (Escherichia coli, UniProt A0A5R8T042), sequence (A0A5R8T042 29-291): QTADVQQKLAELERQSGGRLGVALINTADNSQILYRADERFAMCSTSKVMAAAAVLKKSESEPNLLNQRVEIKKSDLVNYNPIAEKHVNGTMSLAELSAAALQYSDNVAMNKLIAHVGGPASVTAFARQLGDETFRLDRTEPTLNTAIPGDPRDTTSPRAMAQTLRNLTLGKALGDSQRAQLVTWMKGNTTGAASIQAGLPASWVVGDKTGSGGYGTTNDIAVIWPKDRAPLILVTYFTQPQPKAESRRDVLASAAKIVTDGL

SMILES	IC50 [1]	IC50 [2]	IC50 [3, 7]	IC50 [3, 8]	IC50 [4]	IC50 [5]	IC50 [6]
N[C@H](C(=O)N[C@H]1CC[C@@H](CC(=O)O)OB1O)c1ccccc1 [Compound 33, 2-((3R,6S)-3-((S)-2-amino-2-phenylacetamido)-2-hydroxy-1,2-oxaborinan-6-yl)acetic acid]	> 6.53 µM	< 1.63 µM	1.63 to 6.53 µM	1.63 to 6.53 µM	< 1.63 µM	> 6.53 µM	1.63 to 6.53 µM
NCCC(=O)N[C@H]1CC[C@@H](CC(=O)O)OB1O [Compound 34, 2-((3R,6S)-3-(3-aminopropanamido)-2-hydroxy-1,2-oxaborinan-6-yl)acetic acid]	> 8.19 µM	> 8.19 µM	2.05 to 8.19 µM	2.05 to 8.19 µM	< 2.05 µM	> 8.19 µM	> 8.19 µM
N[C@@H](CCC(=O)N[C@H]1CC[C@@H](CC(=O)O)OB1O)C(=O)O [Compound 35, (S)-2-amino-5-((3R,6S)-6-(carboxymethyl)-2-hydroxy-1,2-oxaborinan-3-ylamino)-5-oxopentanoic acid]	> 6.62 µM	> 6.62 µM	> 6.62 µM	> 6.62 µM	< 1.66 µM	> 6.62 µM	> 6.62 µM
O=C(O)C[C@@H]1CC[C@H](NC(=O)CCc2ccccc2)B(O)O1 [Compound 38, 2-((3R,6S)-2-hydroxy-3-(3-phenylpropanamido)-1,2-oxaborinan-6-yl)acetic acid]	1.64 to 6.55 µM	< 1.64 µM	< 1.64 µM	< 1.64 µM	< 1.64 µM	> 6.55 µM	1.64 to 6.55 µM
CSCCC(N)C(=O)N[C@H]1CC[C@@H](CC(=O)O)OB1O (stereo partly drawn) [Compound 41, 2-((3R,6S)-3-(2-amino-4-(methylthio)butanamido)-2-hydroxy-1,2-oxaborinan-6-yl)acetic acid]	> 6.58 µM	> 6.58 µM	< 1.64 µM	< 1.64 µM	< 1.64 µM	> 6.58 µM	> 6.58 µM
NC(Cc1cccnc1)C(=O)N[C@H]1CC[C@@H](CC(=O)O)OB1O (stereo partly drawn) [Compound 42, 2-((3R,6S)-3-(2-amino-3-(pyridin-3-yl)propanamido)-2-hydroxy-1,2-oxaborinan-6-yl)acetic acid]	> 6.23 µM	> 6.23 µM	< 1.56 µM	< 1.56 µM	< 1.56 µM	> 6.23 µM	> 6.23 µM
O=C(O)C[C@@H]1CC[C@H](NC(=O)Cc2cccnc2)B(O)O1 [Compound 43, 2-((3R,6S)-2-hydroxy-3-(2-(pyridin-3-yl)acetamido)-1,2-oxaborinan-6-yl)acetic acid]	> 6.85 µM	1.71 to 6.85 µM	< 1.71 µM	< 1.71 µM	< 1.71 µM	> 6.85 µM	1.71 to 6.85 µM
O=C(O)C[C@@H]1CC[C@H](NC(=O)[C@@H]2CCCCN2)B(O)O1 [Compound 45, 2-((3R,6S)-2-hydroxy-3-((S)-piperidine-2-carboxamido)-1,2-oxaborinan-6-yl)acetic acid]	> 7.04 µM	> 7.04 µM	1.76 to 7.04 µM	1.76 to 7.04 µM	< 1.76 µM	> 7.04 µM	> 7.04 µM
O=C(O)C[C@@H]1CC[C@H](NC(=O)[C@H]2Cc3ccccc3CN2)B(O)O1 [Compound 46, 2-((3R,6S)-2-hydroxy-3-((R)-1,2,3,4-tetrahydroisoquinoline-3-carboxamido)-1,2-oxaborinan-6-yl)acetic acid]	> 6.02 µM	> 6.02 µM	< 1.51 µM	< 1.51 µM	< 1.51 µM	> 6.02 µM	> 6.02 µM
N=C(N)NCCC[C@@H](N)C(=O)N[C@H]1CC[C@@H](CC(=O)O)OB1O [Compound 47, 2-((3R,6S)-3-((R)-2-amino-5-guanidinopentanamido)-2-hydroxy-1,2-oxaborinan-6-yl)acetic acid]	> 6.08 µM	> 6.08 µM	1.52 to 6.08 µM	1.52 to 6.08 µM	< 1.52 µM	> 6.08 µM	> 6.08 µM
O=C(O)C[C@@H]1CC[C@H](NC(=O)Cc2ccncc2)B(O)O1 [Compound 49, 2-((3R,6S)-2-hydroxy-3-(2-(pyridin-4-yl)acetamido)-1,2-oxaborinan-6-yl)acetic acid]	> 6.85 µM	1.71 to 6.85 µM	< 1.71 µM	< 1.71 µM	< 1.71 µM	> 6.85 µM	1.71 to 6.85 µM
N[C@H]1CC[C@@H](CC(=O)N[C@H]2CC[C@@H](CC(=O)O)OB2O)CC1 [Compound 50, 2-((3R,6S)-3-(2-(4-aminocyclohexyl)acetamido)-2-hydroxy-1,2-oxaborinan-6-yl)acetic acid]	> 6.41 µM	1.6 to 6.41 µM	< 1.6 µM	< 1.6 µM	< 1.6 µM	> 6.41 µM	> 6.41 µM
O=C(O)C[C@@H]1CC[C@H](NC(=O)C[C@H]2CCCCN2)B(O)O1 [Compound 52, 2-((3R,6S)-2-hydroxy-3-(2-((R)-piperidin-2-yl)acetamido)-1,2-oxaborinan-6-yl)acetic acid]	> 6.71 µM	> 6.71 µM	< 1.68 µM	1.68 to 6.71 µM	1.68 to 6.71 µM	> 6.71 µM	> 6.71 µM
O=C(O)C[C@@H]1CC[C@H](NC(=O)C[C@@H]2CCCCN2)B(O)O1 [Compound 53, 2-((3R,6S)-2-hydroxy-3-(2-((S)-piperidin-2-yl)acetamido)-1,2-oxaborinan-6-yl)acetic acid]	> 6.71 µM	> 6.71 µM	< 1.68 µM	1.68 to 6.71 µM	1.68 to 6.71 µM	> 6.71 µM	1.68 to 6.71 µM
Cc1nc2ccccc2n1CCC(=O)N[C@H]1CC[C@@H](CC(=O)O)OB1O [Compound 55, 2-((3R,6S)-2-hydroxy-3-(3-(2-methyl-1H-benzo[d]imidazol-1-yl)propanamido)-1,2-oxaborinan-6-yl)acetic acid]	> 5.57 µM	1.39 to 5.57 µM	< 1.39 µM	< 1.39 µM	< 1.39 µM	> 5.57 µM	1.39 to 5.57 µM
O=C(O)C[C@@H]1CC[C@H](NC(=O)c2ccc(Cn3cnnn3)cc2)B(O)O1 [Compound 56, 2-((3R,6S)-3-(4-((1H-tetrazol-1-yl)methyl)benzamido)-2-hydroxy-1,2-oxaborinan-6-yl)acetic acid]	1.39 to 5.57 µM	< 1.39 µM	< 1.39 µM	< 1.39 µM	< 1.39 µM	> 5.57 µM	1.39 to 5.57 µM
O=C(O)C[C@@H]1CC[C@H](NC(=O)Cc2ccccn2)B(O)O1 [Compound 57, 2-((3R,6S)-2-hydroxy-3-(2-(pyridin-2-yl)acetamido)-1,2-oxaborinan-6-yl)acetic acid]	> 6.85 µM	< 1.71 µM	< 1.71 µM	< 1.71 µM	< 1.71 µM	> 6.85 µM	> 6.85 µM
O=C(O)C[C@@H]1CC[C@H](NC(=O)c2cn(C3CC3)c3cc(N4CCNCC4)c(F)cc3c2=O)B(O)O1 [Compound 58, 2-((3R,6S)-3-(1-cyclopropyl-6-fluoro-4-oxo-7-(piperazin-1-yl)-1,4-dihydroquinoline-3-carboxamido)-2-hydroxy-1,2-oxaborinan-6-yl)acetic acid]	> 4.11 µM	1.03 to 4.11 µM	< 1.03 µM	< 1.03 µM	< 1.03 µM	> 4.11 µM	> 4.11 µM
C[C@]1(Cn2ccnn2)[C@H](C(=O)N[C@H]2CC[C@@H](CC(=O)O)OB2O)N2C(=O)C[C@H]2S1(=O)=O [Compound 59, 2-[(3R,6S)-2-hydroxy-3-[(2S,3 S,5R)-3-methyl-4,4,7-trioxo-3-(1H-1,2,3-triazol-1-ylmethyl)-4λ^6-thia-1-azabicyclo[3.2.0]heptane-2-amido]-1,2-oxaborinan-6-yl]acetic acid]	> 4.39 µM	> 4.39 µM	1.1 to 4.39 µM	< 1.1 µM	1.1 to 4.39 µM	> 4.39 µM	1.1 to 4.39 µM
O=C(O)C[C@@H]1CC[C@H](NC(=O)CCc2nnc(-c3ccccc3)o2)B(O)O1 [Compound 60, 2-((3R,6S)-2-hydroxy-3-(3-(5-phenyl-1,3,4-oxadiazol-2-yl)propanamido)-1,2-oxaborinan-6-yl)acetic acid]	1.34 to 5.36 µM	1.34 to 5.36 µM	< 1.34 µM	< 1.34 µM	< 1.34 µM	> 5.36 µM	1.34 to 5.36 µM
Nc1cc(CC(=O)N[C@H]2CC[C@@H](CC(=O)O)OB2O)ccn1 [Compound 61, 2-((3R,6S)-3-(2-(2-aminopyridin-4-yl)acetamido)-2-hydroxy-1,2-oxaborinan-6-yl)acetic acid]	> 6.51 µM	1.63 to 6.51 µM	< 1.63 µM	< 1.63 µM	< 1.63 µM	> 6.51 µM	1.63 to 6.51 µM
CCOC(=O)C[C@@H]1CC[C@H](NC(=O)Cc2cccs2)B(O)O1 [Compound 65, ethyl 2-((3R,6S)-2-hydroxy-3-(2-(thiophen-2-yl)acetamido)-1,2-oxaborinan-6-yl)acetate]	> 6.15 µM	1.54 to 6.15 µM	1.54 to 6.15 µM	1.54 to 6.15 µM	> 6.15 µM	> 6.15 µM	1.54 to 6.15 µM
